Read-outs that look alike come from different tables or passages of the source.
What was measured:
Ba/F3-EGFR-L858R cells = Ba/F3-EGFR-L858R cells (Homo sapiens, UniProt P00533, L858R, cells depend on it); assay: Ba/F3 cell survival assay, EGFR L858R; type: cell-based; conditions: without IL-3, without EGF, 48 h; read-out: BA/F3 (EGFR L858R) IC50
Method: (§1) 293T cells from ATCC were transfected with pBABEpuro expression constructs for mutant EGFR (V769_D770insASV, D770_N771insNPG, N771_P772insH, H773_V774insNPH, E746_A750del, L858R, D770_N771insSVD C797S, E746_A750del C797S, L858R C797S, L861Q) or mutant ERBB2 (A775_G776insYVMA) and pCL-Eco packaging vector using Fugene-6 transfection reagent from Promega. Plates were incubated at 37° C. for 48 h. Retrovirus was harvested by filtering the media supernatant through a 0.45 μm filter.
(§2) Ba/F3 cells purchased from DSMZ were grown in RPMI+10% FBS+10 ng/mL IL-3 and infected with filtered retroviral supernatant at a 1:2 dilution. Polybrene was added to a concentration of 8 μg/mL, plates were spun for 90 min, and incubated overnight at 37° C. 2 μg/mL puromycin was added to the infected cells 24 h after infection and cells were continually grown in the presence of puromycin and 10 ng/mL IL-3. Following stably expressing Ba/F3 cell lines were generated: Ba/F3-EGFR-V769_D770insASV, Ba/F3-EGFR-D770_N771insNPG, Ba/F3-EGFR-N771_P772insH, Ba/F3-EGFR-H773_V774insNPH, Ba/F3-EGFR-E746_A750del, Ba/F3-EGFR-L858R, Ba/F3-EGFR-D770_N771 insSVD C797S, Ba/F3-EGFR-E746_A750del C797S, Ba/F3-EGFR-L858R C797S, Ba/F3-EGFR L861Q and Ba/F3-ERBB2-A775_G776insYVMA (Ba/F3-vector-control).
(§3) For cell survival assays, Ba/F3 cells were grown to a density of 1-2 million cells per mL, spun down and resuspended in media without IL-3, and replated at a concentration 200,000-500,000 cells per mL. The cells ectopically expressing WT EGFR plated with 10 ng/mL Millipore Culture grade EGF and Ba/F3 cells containing mutant EGFR or Mutant ERBB2 were cultivated without EGF. The cells ectopically expressing pBABEpuro empty vector were plated with 10 ng/mL IL-3.
(§4) 2 days later, cells were plated in 50 μL in a 384 well plate at a concentration of 4000 cells per well for cells assayed in the absence of IL-3 and 2000 cells per well for cells assayed in the presence of IL-3. 100 nL of compound was added to each well using a 100 nL pin head, and plates were incubated at 37° C. for 48 h.
(§5) Cell viability was measured by adding 20 μL of Cell Titer-Glo Luminescent Cell Viability Reagent diluted 1:3 in PBS. Plates were sealed with Perkin Elmer Top-Seal, inverted several times to mix, and immediately centrifuged at 1000 rpm for 2 min. Plates were incubated in low light conditions for 8-10 min and luminescence was measured.

Bub1 = target: T1, Bub1 (Homo sapiens, UniProt O43683); assay: Bub1 TR-FRET high ATP kinase assay; type: biochemical; conditions: 2 mM ATP
T1 construct: catalytic domain of human Bub1 (amino acids 704-1085); His6 (N); made in house; host or cells: Hi5 insect cells
T1 sequence (O43683 704-1085): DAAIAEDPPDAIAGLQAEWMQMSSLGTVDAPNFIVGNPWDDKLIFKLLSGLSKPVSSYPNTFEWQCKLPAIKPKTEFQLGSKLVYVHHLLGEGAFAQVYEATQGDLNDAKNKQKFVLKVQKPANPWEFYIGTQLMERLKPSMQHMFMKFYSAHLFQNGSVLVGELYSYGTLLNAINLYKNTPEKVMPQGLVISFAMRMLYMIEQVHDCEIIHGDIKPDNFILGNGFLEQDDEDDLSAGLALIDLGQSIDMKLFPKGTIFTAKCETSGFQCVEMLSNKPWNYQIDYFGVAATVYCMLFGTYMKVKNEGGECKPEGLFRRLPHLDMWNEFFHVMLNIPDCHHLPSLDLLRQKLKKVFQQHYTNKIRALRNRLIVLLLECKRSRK
Method in brief: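 Recombinant His6-tagged human Bub1 catalytic domain (aa 704-1085), from Hi5 insect cells, phosphorylating a biotinylated peptide substrate at high ATP concentration. TR-FRET read-out.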

[1] = target: Ba/F3-ERBB2-A775_G776insYVMA cells (Homo sapiens, UniProt P04626, DUP772-775, cells depend on it); assay: Ba/F3 cell survival assay, ERBB2 A775_G776insYVMA; type: cell-based; conditions: without IL-3, without EGF, 48 h; read-out: BA/F3 (ERBB2 A775_G776 insYVMA) IC50
Ba/F3-ERBB2-A775_G776insYVMA cells, sequence (P04626 with tags, fused parts or gaps DUP772-775): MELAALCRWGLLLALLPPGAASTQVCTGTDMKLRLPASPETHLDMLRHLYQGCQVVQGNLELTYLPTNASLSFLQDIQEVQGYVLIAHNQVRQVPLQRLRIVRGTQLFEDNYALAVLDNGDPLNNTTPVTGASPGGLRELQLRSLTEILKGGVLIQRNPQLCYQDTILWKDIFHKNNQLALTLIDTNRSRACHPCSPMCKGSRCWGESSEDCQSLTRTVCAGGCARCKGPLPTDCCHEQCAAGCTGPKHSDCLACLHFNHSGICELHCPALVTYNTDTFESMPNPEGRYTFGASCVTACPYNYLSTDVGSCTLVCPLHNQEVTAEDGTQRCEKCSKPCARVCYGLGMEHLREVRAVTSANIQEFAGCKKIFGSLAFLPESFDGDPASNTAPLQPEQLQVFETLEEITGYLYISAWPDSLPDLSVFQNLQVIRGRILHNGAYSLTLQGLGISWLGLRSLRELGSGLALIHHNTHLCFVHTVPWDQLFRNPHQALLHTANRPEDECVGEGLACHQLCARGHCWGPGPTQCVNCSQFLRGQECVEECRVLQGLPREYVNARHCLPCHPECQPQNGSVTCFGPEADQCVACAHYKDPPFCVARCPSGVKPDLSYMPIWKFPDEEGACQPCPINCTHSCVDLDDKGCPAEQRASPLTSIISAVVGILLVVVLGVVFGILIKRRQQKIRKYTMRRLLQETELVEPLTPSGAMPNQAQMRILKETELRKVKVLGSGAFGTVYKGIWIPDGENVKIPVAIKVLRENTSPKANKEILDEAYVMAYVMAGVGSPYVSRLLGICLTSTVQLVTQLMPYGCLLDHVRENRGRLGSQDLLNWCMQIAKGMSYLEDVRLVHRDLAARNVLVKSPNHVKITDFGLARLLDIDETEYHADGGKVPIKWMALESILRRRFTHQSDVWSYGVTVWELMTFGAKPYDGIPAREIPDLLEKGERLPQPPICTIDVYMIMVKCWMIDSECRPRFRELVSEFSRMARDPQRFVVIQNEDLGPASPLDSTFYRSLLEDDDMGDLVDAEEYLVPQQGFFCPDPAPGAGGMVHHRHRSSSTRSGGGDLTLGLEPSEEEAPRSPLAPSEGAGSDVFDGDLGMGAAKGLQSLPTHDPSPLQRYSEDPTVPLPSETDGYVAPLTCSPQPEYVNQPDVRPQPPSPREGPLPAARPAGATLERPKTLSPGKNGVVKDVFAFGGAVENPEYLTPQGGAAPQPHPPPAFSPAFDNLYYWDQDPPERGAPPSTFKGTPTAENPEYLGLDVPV
Method: as §1, §2, §3, §4, §5

[2] = Bub1 high ATP (2 mM) IC50 [mol/l]

Ba/F3-EGFR-L858R cells, sequence (P00533 whole entry L858R): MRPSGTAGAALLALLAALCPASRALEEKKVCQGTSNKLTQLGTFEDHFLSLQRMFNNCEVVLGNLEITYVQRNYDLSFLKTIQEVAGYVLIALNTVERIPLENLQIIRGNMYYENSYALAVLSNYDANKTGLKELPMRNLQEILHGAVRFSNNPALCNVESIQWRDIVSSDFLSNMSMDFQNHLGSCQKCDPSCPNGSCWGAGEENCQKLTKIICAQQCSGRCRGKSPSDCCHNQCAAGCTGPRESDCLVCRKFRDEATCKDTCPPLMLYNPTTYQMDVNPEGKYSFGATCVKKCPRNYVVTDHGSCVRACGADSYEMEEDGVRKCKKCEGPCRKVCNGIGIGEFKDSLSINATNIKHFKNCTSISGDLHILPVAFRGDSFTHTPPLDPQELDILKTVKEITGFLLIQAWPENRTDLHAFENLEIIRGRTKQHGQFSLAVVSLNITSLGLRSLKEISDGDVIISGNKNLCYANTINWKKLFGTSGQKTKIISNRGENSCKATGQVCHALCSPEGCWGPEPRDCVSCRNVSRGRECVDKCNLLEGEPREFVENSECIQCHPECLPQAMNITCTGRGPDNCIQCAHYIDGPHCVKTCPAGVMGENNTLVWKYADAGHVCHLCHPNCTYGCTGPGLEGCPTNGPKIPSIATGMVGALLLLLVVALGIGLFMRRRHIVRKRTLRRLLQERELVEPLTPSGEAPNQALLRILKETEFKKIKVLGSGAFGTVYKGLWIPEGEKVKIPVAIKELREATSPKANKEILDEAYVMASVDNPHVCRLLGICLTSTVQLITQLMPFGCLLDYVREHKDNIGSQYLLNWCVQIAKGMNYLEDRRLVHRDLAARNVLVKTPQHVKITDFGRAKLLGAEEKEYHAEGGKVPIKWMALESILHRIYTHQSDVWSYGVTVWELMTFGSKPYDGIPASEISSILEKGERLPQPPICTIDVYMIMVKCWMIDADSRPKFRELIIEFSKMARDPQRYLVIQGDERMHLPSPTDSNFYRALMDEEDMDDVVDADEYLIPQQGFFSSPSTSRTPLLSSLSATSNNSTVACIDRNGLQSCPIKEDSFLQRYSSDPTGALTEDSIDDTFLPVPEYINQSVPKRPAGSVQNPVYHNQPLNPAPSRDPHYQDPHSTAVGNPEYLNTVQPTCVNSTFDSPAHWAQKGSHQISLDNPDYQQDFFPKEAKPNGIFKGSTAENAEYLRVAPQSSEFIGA

Structure (SMILES) | GI50 (Ba/F3-EGFR-L858R cells) | IC50 (Bub1; read-out: Bub1 high ATP (2 mM) IC50 [mol/l]) | GI50 [1] | IC50 (Bub1; [2])
COc1c(F)cccc1Nc1c(-c2ccncc2OCC2CN(C)CCO2)[nH]c2c1C(=O)NCC2 (single isomer, unassigned) [Example 14, 3-(3-fluoro-2-methoxyanilino)-2-{3-[(4-methylmorpholin-2-yl)methoxy]pyridin-4-yl}-1,5,6,7-tetrahydro-4H-pyrrolo[3,2-c]pyridin-4-one] | 1.22 nM | > 20000 nM | 13.6 nM | –
O=C1NCCc2[nH]c(-c3ccncc3OCC3COCCO3)c(Nc3cccc(Cl)c3Cl)c21 (single isomer, unassigned) [Example 8, 3-(2,3-dichloroanilino)-2-{3-[(1,4-dioxan-2-yl)methoxy]pyridin-4-yl}-1,5,6,7-tetrahydro-4H-pyrrolo[3,2-c]pyridin-4-one] | 0.701 nM | – | 13.1 nM | 7880 nM
Cc1c(Cl)cccc1Nc1c(-c2ccncc2OC[C@@H]2CN(C)CCO2)[nH]c2c1C(=O)NCC2 [Example 42, 3-(3-chloro-2-methylanilino)-2-(3-{[(2S)-4-methylmorpholin-2-yl]methoxy}pyridin-4-yl)-1,5,6,7-tetrahydro-4H-pyrrolo[3,2-c]pyridin-4-one] | 1.51 nM | – | 13.2 nM | > 20000 nM
CCc1c(Cl)cccc1Nc1c(-c2ccncc2OC[C@@H]2CN(C)CCO2)[nH]c2c1C(=O)NCC2 [Example 56, 3-(3-chloro-2-ethylanilino)-2-(3-{[(2S)-4-methylmorpholin-2-yl]methoxy}pyridin-4-yl)-1,5,6,7-tetrahydro-4H-pyrrolo[3,2-c]pyridin-4-one] | 1.34 nM | – | 13.5 nM | 16500 nM
COc1c(Cl)cccc1Nc1c(-c2ccncc2OC[C@@H]2COCCN2C)[nH]c2c1C(=O)NCC2 [Example 21, 3-(3-chloro-2-methoxyanilino)-2-(3-{[(3S)-4-methylmorpholin-3-yl]methoxy}pyridin-4-yl)-1,5,6,7-tetrahydro-4H-pyrrolo[3,2-c]pyridin-4-one] | 0.644 nM | – | 13.4 nM | 3790 nM
COc1c(F)cccc1Nc1c(-c2ccncc2OCC2COCCO2)[nH]c2c1C(=O)NCC2 (single isomer, unassigned) [Example 5, 2-{3-[(1,4-dioxan-2-yl)methoxy]pyridin-4-yl}-3-(3-fluoro-2-methoxyanilino)-1,5,6,7-tetrahydro-4H-pyrrolo[3,2-c]pyridin-4-one] | 2.03 nM | – | – | 12900 nM
COc1c(Cl)cccc1Nc1c(-c2ccncc2OCC2COC(C)(C)CO2)[nH]c2c1C(=O)NCC2 (single isomer, unassigned) [Example 32, 3-(3-chloro-2-methoxyanilino)-2-{3-[(5,5-dimethyl-1,4-dioxan-2-yl)methoxy]pyridin-4-yl}-1,5,6,7-tetrahydro-4H-pyrrolo[3,2-c]pyridin-4-one] | 1.06 nM | – | 16.7 nM | –
Cc1c(Cl)cccc1Nc1c(-c2ccncc2OC[C@H]2COCCO2)[nH]c2c1C(=O)NCC2 (single isomer, unassigned) [Example 50] | 1.07 nM | – | 10.3 nM | 3540 nM
Cc1c(F)cccc1Nc1c(-c2ccncc2OCC2COCCO2)[nH]c2c1C(=O)NCC2 (single isomer, unassigned) [Example 48, 2-[3-(1,4-dioxan-2-ylmethoxy)-4-pyridyl]-3-(3-fluoro-2-methyl-anilino)-1,5,6,7-tetrahydropyrrolo[3,2-c]pyridin-4-one] | 2.36 nM | – | 39.8 nM | 12200 nM
Cc1c(Cl)cccc1Nc1c(-c2ccncc2OCC2COC(C)(C)CO2)[nH]c2c1C(=O)NCC2 (single isomer, unassigned) [Example 46, 3-(3-chloro-2-methyl-anilino)-2-[3-[(5,5-dimethyl-1,4-dioxan-2-yl)methoxy]-4-pyridyl]-1,5,6,7-tetrahydropyrrolo[3,2-c]pyridin-4-one] | 0.957 nM | – | 11 nM | 13000 nM
COc1c(Cl)cccc1Nc1c(-c2ccncc2OC[C@@H]2COCCO2)[nH]c2c1C(=O)NCC2 (single isomer, unassigned) [Example 2] | 0.525 nM | – | 8.31 nM | 6040 nM
COc1c(F)cccc1Nc1c(-c2ccncc2OC[C@@H]2COCCN2C)[nH]c2c1C(=O)NCC2 [Example 20, 3-(3-fluoro-2-methoxyanilino)-2-(3-{[(3S)-4-methylmorpholin-3-yl]methoxy}pyridin-4-yl)-1,5,6,7-tetrahydro-4H-pyrrolo[3,2-c]pyridin-4-one] | – | – | 23.5 nM | 9530 nM
